Results: patent US20090197859A1 (Pfizer Inc., priority 2008, published 2009)
Where a name gives a salt, the structure may show the parent alone.

Experiments:
[1] = target: T1, cloned human 5-HT6 receptor (Homo sapiens, UniProt P50406); experiment: 5-HT6 Receptor Binding Assay ([3H]-LSD radioligand, SPA); settings: read-out: 5HT6 % inh @ 1 uM
T1 construct: host or cells: HeLa cells, G-418 selection, membrane preparation
Experimental: 5-HT6 Receptor Binding Assay
Hela cells containing the cloned human 5-HT6 receptor were acquired from Dr. David R. Sibley's laboratory in National Institute of Health (see Sibley, D. R., J. Neurochemistry, 66, 47-56, 1996). Cells were grown in high glucose Dulbecco's modified Eagle's medium, supplemented with L-glutamine, 0.5% sodium pyruvate, 0.3% penicillin-streptomycin, 0.025% G-418 and 5% Gibco fetal bovine serum and then were harvested, when confluent, in cold phosphate buffered saline.
Harvested intact cells were washed once in cold phosphate-buffered saline. The cells were pelleted and resuspended in 100 ml of cold 50 mM Tris, 5 mM EDTA and 5 mM EGTA, pH 7.4. Homogenization was with a Vir Tishear generator, 4 cycles for 30 seconds each at setting 50. The homogenized cells were centrifuged at […] for 10 minutes and the supernatant was removed. The pellet was resuspended in 100 ml of the above buffer and rehomogenized for 2 cycles. The rehomogenized cells were then centrifuged at […] for 10 minutes and the supernatant was removed. The combined supernatant (200 ml) was centrifuged at 23,000 RPM (80,000×g) for 1 hour in a Beckman Rotor (42.1 Ti). The membrane pellet was resuspended in […] of assay buffer containing HEPES 20 mM, MgCl2 10 mM, NaCl 150 mM, EDTA 1 mM, pH 7.4 and stored frozen in aliqouts at −70° C.
The radioligand binding assay used [^3H]-lysergic acid diethylamide (LSD). The assay was carried out in Wallac 96-well sample plates by the addition of 11 μl of the test sample at the appropriate dilution (the assay employed 11 serial concentrations of samples run in duplicate), 11 μl of radioligand, and 178 μl of a washed mixture of WGA-coated SPA beads and membranes in binding buffer. The plates were shaken for about 5 minutes and then incubated at room temperature for 1 hour. The plates were then loaded into counting cassettes and counted in a Wallac MicroBeta Trilux scintillation counter.
Binding Constant Determination may be obtained by performing serial dilutions, e.g., eleven dilutions, of test compounds into assay plates using the PE/Cetus Pro/Pette pipetter. These dilutions are followed by radioligand and the bead-membrane mixture prepared as described above. After obtaining the specifically bound cpm, the data are fit to a one-site binding model using GraphPad Prism ver. 2.0. Estimated IC50 values are converted to Ki values using the Cheng-Prusoff equation (Cheng, Y. C. et al., Biochem. Pharmacol., 22, 3099-108, 1973).

T1 sequence (P50406 whole entry): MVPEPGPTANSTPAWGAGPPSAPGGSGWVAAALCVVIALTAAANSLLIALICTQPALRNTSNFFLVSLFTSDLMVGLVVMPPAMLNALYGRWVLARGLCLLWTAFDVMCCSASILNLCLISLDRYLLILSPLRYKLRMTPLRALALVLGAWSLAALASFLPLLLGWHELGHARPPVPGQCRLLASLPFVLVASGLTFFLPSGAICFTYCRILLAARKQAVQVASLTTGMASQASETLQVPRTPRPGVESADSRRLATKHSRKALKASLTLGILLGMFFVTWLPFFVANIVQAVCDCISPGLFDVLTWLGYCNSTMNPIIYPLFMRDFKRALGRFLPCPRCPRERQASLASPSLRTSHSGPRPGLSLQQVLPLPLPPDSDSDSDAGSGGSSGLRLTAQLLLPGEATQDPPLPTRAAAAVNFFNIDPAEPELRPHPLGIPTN

Row | SMILES | melting point [°C] | inhibition at 1 µM [1] [%]
1 | Cc1cccc(CN(C)C(=O)c2cccc(N3CCN(C)CC3)n2)c1 [Example 73, 6-(4-Methyl-piperazin-1-yl)-pyridine-2-carboxylic acid methyl-(3-methyl-benzyl)-amide] | 101 to 102 | 91.9
2 | CN1CCCN(c2cccc(C(=O)N3CC[C@H](Oc4ccccc4Cl)C3)n2)CC1 [Example 69, [(S)-3-(2-Chloro-phenoxy)-pyrrolidin-1-yl]-[6-(4-methyl-[1,4]diazepan-1-yl)-pyridin-2-yl]-methanone] | 90 to 92 | 97.7
3 | O=C(c1cccc(N2CCNCC2)n1)N1CCCCC1c1cccc(F)c1 (centres unmarked) [Example 27, [2-(3-Fluoro-phenyl)-piperidin-1-yl]-(6-piperazin-1-yl-pyridin-2-yl)-methanone] | 156.8 to 157 | 94.5
4 | Cc1cccc(O[C@H]2CCCN(C(=O)c3cccc(N4CCN(C)CC4)n3)C2)c1 [Example 76, [6-(4-Methyl-piperazin-1-yl)-pyridin-2-yl]-((S)-3-m-tolyloxy-piperidin-1-yl)-methanone] | 73 to 75 | 99
5 | CN1CCN(c2cccc(C(=O)N3CCC[C@H](Oc4cccc(Cl)c4)C3)n2)CC1 [Example 77, [(S)-3-(3-Chloro-phenoxy)-piperidin-1-yl]-[6-(4-methyl-piperazin-1-yl)-pyridin-2-yl]-methanone] | 78 to 80 | 99.5
6 | CN1CCN(c2cccc(C(=O)N3CCCC[C@@H]3c3ccc(F)cc3)n2)CC1 [Example 67, [(R)-2-(4-Fluoro-phenyl)-piperidin-1-yl]-[6-(4-methyl-piperazin-1-yl)-pyridin-2-yl]-methanone] | 130.8 to 131.5 | 79.1
7 | Cc1ccccc1O[C@@H]1CCN(C(=O)c2cccc(N3CCCN(C)CC3)n2)C1 (as salt: hydrochloride) [Example 53, [6-(4-Methyl-[1,4]diazepan-1-yl)-pyridin-2-yl]-((R)-3-o-tolyloxy-pyrrolidin-1-yl)-methanone] | 94 to 96 | –
8 | Cc1ccc(C2CCCCN2C(=O)c2cccc(N3CCCNCC3)n2)cc1 (centres unmarked) [Example 37, (6-[1,4]Diazepan-1-yl-pyridin-2-yl)-(2-p-tolyl-piperidin-1-yl)-methanone] | 147.9 to 148.5 | 71.6
9 | Cc1cccc(O[C@H]2CCCN(C(=O)c3cccc(N4CCCNCC4)n3)C2)c1 [Example 44, (6-[1,4]Diazepan-1-yl-pyridin-2-yl)-((S)-3-m-tolyloxy-piperidin-1-yl)-methanone] | 184 to 185.6 | 99.7
10 | Cc1ccccc1O[C@H]1CCCN(C(=O)c2cccc(N3CCCNCC3)n2)C1 [Example 45, (6-[1,4]Diazepan-1-yl-pyridin-2-yl)-((S)-3-o-tolyloxy-piperidin-1-yl)-methanone] | 118 to 119.7 | 95.4
11 | O=C(c1cccc(N2CCCNCC2)n1)N1CC[C@H](Oc2ccccc2F)C1 (as salt: hydrochloride) [Example 30, (6-[1,4]Diazepan-1-yl-pyridin-2-yl)-[(S)-3-(2-fluoro-phenoxy)-pyrrolidin-1-yl]-methanone] | 75 to 77 | –
12 | O=S(=O)(c1cccc(N2CCNCC2)n1)N1CCC(c2ccccc2F)CC1 (as salt: hydrochloride) [Example 51, 1-{6-[4-(2-Fluoro-phenyl)-piperidine-1-sulfonyl]-pyridin-2-yl}-piperazine] | 211 to 212.2 | –
13 | CN1CCN(c2cccc(C(=O)N3CC=C(c4ccccc4F)CC3)n2)CC1 (as salt: hydrochloride) [Example 21, [4-(2-Fluoro-phenyl)-3,6-dihydro-2H-pyridin-1-yl]-[6-(4-methyl-piperazin-1-yl)-pyridin-2-yl]-methanone] | 176.7 to 177.2 | –
14 | Cc1ccccc1C1CCCCN1C(=O)c1cccc(N2CCNCC2)n1 (centres unmarked) [Example 26, (6-Piperazin-1-yl-pyridin-2-yl)-(2-o-tolyl-piperidin-1-yl)-methanone] | – | 78.6
15 | Cc1ccccc1OC1CCN(C(=O)c2cccc(C3=CCN(C)CC3)n2)CC1 [Example 98, (1′-Methyl-1′,2′,3′,6′-tetrahydro-[2,4′]bipyridinyl-6-yl)-(4-o-tolyloxy-piperidin-1-yl)-methanone] | – | 99.1
16 | CN1CCCN(c2cccc(C(=O)N3CCCC[C@@H]3c3ccccc3F)n2)CC1 [Example 89, [(R)-2-(2-Fluoro-phenyl)-piperidin-1-yl]-[6-(4-methyl-[1,4]diazepan-1-yl)-pyridin-2-yl]-methanone] | – | 92.3
17 | Cc1ccccc1C1CCCCN1C(=O)c1cccc(N2CCNCC2)n1 (centres unmarked) (as salt: hydrochloride) [Example 26, (6-Piperazin-1-yl-pyridin-2-yl)-(2-o-tolyl-piperidin-1-yl)-methanone] | 105.6 to 106 | –
18 | Cc1ccccc1C1CCN(S(=O)(=O)c2cccc(N3CCN(C)CC3)n2)CC1 (as salt: hydrochloride) [Example 78, 1-Methyl-4-[6-(4-o-tolyl-piperidine-1-sulfonyl)-pyridin-2-yl]-piperazine] | 203 to 204.5 | –

More lines, now with the values ahead:

Row | melting point [°C] | inhibition at 1 µM [1] [%] | SMILES
19 | 163 to 164.7 | – | Cc1cccc(F)c1C1CCN(C(=O)c2cccc(N3CCN(C)CC3)n2)CC1 (as salt: hydrochloride) [Example 23, [4-(2-Fluoro-6-methyl-phenyl)-piperidin-1-yl]-[6-(4-methyl-piperazin-1-yl)-pyridin-2-yl]-methanone]
20 | 148.6 to 149.5 | 98.7 | CN1CCN(c2cccc(C(=O)N3CCC(c4ccc(F)cc4F)CC3)n2)CC1 [Example 102, [4-(2,4-Difluoro-phenyl)-piperidin-1-yl]-[6-(4-methyl-piperazin-1-yl)-pyridin-2-yl]-methanone]
21 | 118 to 120 | – | Cc1ccccc1OC1CCN(C(=O)c2cccc(C3CCN(C)CC3)n2)CC1 (as salt: hydrochloride) [Example 95, (1′-Methyl-1′,2′,3′,4′,5′,6′-hexahydro-[2,4′]bipyridinyl-6-yl)-(4-o-tolyloxy-piperidin-1-yl)-methanone]
22 | 116.2 to 117.4 | 93.6 | Cc1cc(F)ccc1C1CCN(C(=O)c2cccc(C3CCN(C)C3)n2)CC1 (centres unmarked) [Example 106, [4-(4-Fluoro-2-methyl-phenyl)-piperidin-1-yl]-[6-(1-methyl-pyrrolidin-3-yl)-pyridin-2-yl]-methanone]
23 | 156.4 to 157.7 | 97.6 | Cc1cc(F)ccc1C1CCN(C(=O)c2cccc(N3CCN(C)CC3)n2)CC1 [Example 105, [4-(4-Fluoro-2-methyl-phenyl)-piperidin-1-yl]-[6-(4-methyl-piperazin-1-yl)-pyridin-2-yl]-methanone]
24 | 113 to 115 | 99.1 | CN1CCCN(c2cccc(C(=O)N3CCC[C@H](Oc4cccc(F)c4)C3)n2)CC1 [Example 85, [(S)-3-(3-Fluoro-phenoxy)-piperidin-1-yl]-[6-(4-methyl-[1,4]diazepan-1-yl)-pyridin-2-yl]-methanone]
25 | 85 to 86 | – | CN1CCC(c2cccc(C(=O)N3CCC(Oc4cccc(F)c4)CC3)n2)C1 (centres unmarked) (as salt: hydrochloride) [Example 16, [4-(3-Fluoro-phenoxy)-piperidin-1-yl]-[6-(1-methyl-pyrrolidin-3-yl)-pyridin-2-yl]-methanone]
26 | 106 to 108 | – | CN1CCCN(c2cccc(C(=O)N3CC[C@@H](Oc4ccccc4F)C3)n2)CC1 (as salt: hydrochloride) [Example 46, [(R)-3-(2-Fluoro-phenoxy)-pyrrolidin-1-yl]-[6-(4-methyl-[1,4]diazepan-1-yl)-pyridin-2-yl]-methanone]
27 | – | 90.8 | CN1CCN(c2cccc(C(=O)N3CCCC(c4cccc(F)c4)C3)n2)CC1 (centres unmarked) [Example 94, [3-(3-Fluoro-phenyl)-piperidin-1-yl]-[6-(4-methyl-piperazin-1-yl)-pyridin-2-yl]-methanone]
28 | – | 95.4 | CN1CCC(c2cccc(C(=O)N3CCC(c4ccc(F)cc4F)CC3)n2)C1 (centres unmarked) [Example 108, [4-(2,4-Difluoro-phenyl)-piperidin-1-yl]-[6-(1-methyl-pyrrolidin-3-yl)-pyridin-2-yl]-methanone]
